The values that follow come from patent publication US8785445B2 (Array BioPharma Inc., priority 2008, dated 2014).

Where two headings read alike, the source gives them in different places.

For this assay, the target named is T1, human DP2 (Homo sapiens, UniProt Q9Y5Y4).
T1 construct: expressed in transfected cells; membranes prepared
T1 sequence (Q9Y5Y4 1-395): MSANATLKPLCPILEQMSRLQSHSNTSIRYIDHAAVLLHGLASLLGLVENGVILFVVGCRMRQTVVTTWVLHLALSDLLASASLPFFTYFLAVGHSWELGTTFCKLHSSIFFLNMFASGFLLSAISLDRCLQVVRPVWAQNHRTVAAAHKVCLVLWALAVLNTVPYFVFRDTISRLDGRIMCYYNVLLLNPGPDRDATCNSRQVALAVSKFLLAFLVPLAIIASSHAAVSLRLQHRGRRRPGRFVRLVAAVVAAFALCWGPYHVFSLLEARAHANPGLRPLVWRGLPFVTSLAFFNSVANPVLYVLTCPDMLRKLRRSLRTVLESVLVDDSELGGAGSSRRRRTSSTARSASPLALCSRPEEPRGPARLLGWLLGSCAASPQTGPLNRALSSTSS
In words: DP-2 binding inhibition assay (3H-PGD2, membranes of DP2-expressing K562 cells). As to the method: The coding sequence of human DP2 was introduced into the human Leukemic cell line K562 by electroporation and stable clones expressing DP2 were obtained by limiting dilution followed by cell surface staining with a rat monoclonal antibody specific for human DP2. Membranes were prepared from one of these DP2 expressing clones and used to determine the ability of the compounds of the present invention to inhibit binding of prostaglandin D2 (PGD2) to its receptor DP2 in the presence of one or more of the following serum protein concentrations, 0.1% BSA, 1% HSA or 4% HSA, by the following procedure. […] After incubation for 60 minutes at room temperature, the assay was transferred to a filtration plate (#MAFB; Millipore Corporation, Bedford, Mass.), and washed three times with binding buffer. Radioactivity was measured by a scintillation counter (TopCount; PerkinElmer Life Sciences, Boston, Mass.). Nonspecific binding was determined by incubations in the presence of 1 μM unlabeled PGD2 or 5 μM of a known DP2 antagonist. IC50 values for inhibition of binding were determined for each compound tested from the inflexion point of a standard 4-parameter logistical curve fitted to the values obtained.

Setting [1] is: 4% HSA, read-out: EC50 (nM) 4% HSA.
[2] abbreviates: 0.1% BSA, read-out: EC50 (nM) 0.1% BSA.
[3] abbreviates: 1% HSA, read-out: EC50 (nM) 1% HSA.

Turning to `O=C(Nc1ccc2cc(Cl)ccc2n1)c1ccc(Oc2cc3c(cc2Cl)[C@H](C(=O)O)CCO3)cc1` (single isomer, unassigned; enantiomer 1) [Example 36, 6-Chloro-7-(4-(6-chloroquinolin-2-ylcarbamoyl)phenoxy)chroman-4-carboxylic acid, Enantiomer 1], the EC50 under setting [1] amounted to 84 nM.
As for `O=C(Nc1cccc(-c2ccc(Cl)cc2)n1)c1ccc(Oc2cc3c(cc2Cl)[C@@H](C(=O)O)CCO3)cc1` (single isomer, unassigned; enantiomer 1) [Example 141, 6-Chloro-7-(4-(6-(4-chlorophenyl)pyridin-2-ylcarbamoyl)phenoxy)chroman-4-carboxylic acid, Enantiomer 1], the EC50 under setting [1] amounted to 3920 nM.
Take `O=C(Nc1ccc2cc(Cl)ccc2n1)c1ccc(Oc2cc3c(cc2Cl)[C@@H](C(=O)O)CCO3)cc1` (single isomer, unassigned; enantiomer 2) [Example 37, 6-Chloro-7-(4-(6-chloroquinolin-2-ylcarbamoyl)phenoxy)chroman-4-carboxylic acid, Enantiomer 2]: the EC50 under setting [1] was found to be 4000 nM.
Turning to `O=C(Nc1cccc(-c2ccc(Cl)cc2)n1)c1ccc(Oc2cc3c(cc2Cl)[C@H](C(=O)O)CCO3)cc1` (single isomer, unassigned; enantiomer 2) [Example 142, 6-Chloro-7-(4-(6-(4-chlorophenyl)pyridin-2-ylcarbamoyl)phenoxy)chroman-4-carboxylic acid, Enantiomer 2], the EC50 under setting [1] was 21.7 nM.
Take `O=C(Nc1cccc(-c2ccc(Cl)cc2)n1)c1ccc(Oc2cc3c(cc2Cl)C(C(=O)O)CCO3)cc1` (single isomer, unassigned; enantiomer 2) [Example 182, Enantiomer 2 of 6-Chloro-7-(4-(6-(4-chlorophenyl)pyridin-2-ylcarbamoyl)phenoxy)chroman-4-carboxylic acid]: the EC50 under setting [1] came to 22 nM.
Regarding `O=C(Nc1ccc(-c2ccc(C(F)(F)F)cc2)nn1)c1ccc(Oc2cc3c(cc2Cl)C(C(=O)O)CCO3)cc1` (single isomer, unassigned; enantiomer 2) [Example 185, Enantiomer 2 of sodium 6-chloro-7-(4-(6-(4-(trifluoromethyl)phenyl)pyridazin-3-ylcarbamoyl)phenoxy)chroman-4-carboxylate], the EC50 is, setting by setting: under setting [2], 1.2 nM; under setting [1], 60 nM.
Take `O=C(Nc1cccc(-c2ccc(Cl)cc2)n1)c1ccc(Oc2cc3c(cc2Cl)C(C(=O)O)CCO3)cc1` (stereo in doubt) [Example 206, (R)-6-chloro-7-(4-(6-(4-chlorophenyl)pyridin-2-ylcarbamoyl)phenoxy) chroman-4-carboxylic acid]: the EC50 under setting [1] is 5000 nM.
For `N#Cc1cc2c(cc1Oc1ccc(C(=O)Nc3ccc(C(F)(F)F)cn3)cc1)OCCC2C(=O)O` (centres unmarked) [Example 1, 7-(4-((5-(Trifluoromethyl)pyridin-2-yl)carbamoyl)phenoxy)-6-cyanochroman-4-carboxylic acid], under setting [2], the EC50 is 19.3 nM.
On to `N#Cc1cc2c(cc1Oc1ccc(C(=O)Nc3ccc(Cl)cn3)cc1)OCCC2C(=O)O` (centres unmarked) [Example 2, 7-(4-(5-Chloropyridin-2-ylcarbamoyl)phenoxy)-6-cyanochroman-4-carboxylic acid], for which the EC50 under setting [2] is 26.7 nM.
As for `N#Cc1cc2c(cc1Oc1ccc(C(=O)Nc3ccc4ccccc4n3)cc1)OCCC2C(=O)O` (centres unmarked) [Example 3, 6-Cyano-7-(4-(quinolin-2-ylcarbamoyl)phenoxy)chroman-4-carboxylic acid], the EC50 is 12.8 nM under setting [2] and 482 nM under setting [3].
As for `N#Cc1cc2c(cc1Oc1ccc(C(=O)Nc3cnc4ccccc4n3)cc1)OCCC2C(=O)O` (centres unmarked) [Example 4, 6-Cyano-7-(4-(quinoxalin-2-ylcarbamoyl)phenoxy)chroman-4-carboxylic acid], the EC50 is 27.7 nM under setting [2] and 370 nM under setting [3].
Take `N#Cc1cc2c(cc1Oc1ccc(C(=O)Nc3ccc4cc(Cl)ccc4n3)cc1)OCCC2C(=O)O` (centres unmarked) [Example 5, 7-(4-(6-Chloroquinolin-2-ylcarbamoyl)phenoxy)-6-cyanochroman-4-carboxylic acid]: the EC50 is, setting by setting: under setting [2], 5.9 nM; under setting [3], 137 nM; under setting [1], 357 nM.
On to `N#Cc1cc2c(cc1Oc1ccc(C(=O)Nc3ccc(C(F)(F)F)nc3)cc1)OCCC2C(=O)O` (centres unmarked) [Example 6, 7-(4-((6-(Trifluoromethyl)pyridin-3-yl)carbamoyl)phenoxy)-6-cyanochroman-4-carboxylic acid], for which the half-maximal effective concentration (EC50) runs as follows: under setting [2], 16.9 nM; under setting [3], 524 nM.
Turning to `COc1cccc2cc(NC(=O)c3ccc(Oc4cc5c(cc4C#N)C(C(=O)O)CCO5)cc3)cnc12` (centres unmarked) [Example 7, 6-Cyano-7-(4-(8-methoxyquinolin-3-ylcarbamoyl)phenoxy)chroman-4-carboxylic acid], under setting [1], the EC50 was determined as 2070 nM.
Regarding `N#Cc1cc2c(cc1Oc1ccc(C(=O)Nc3ncc4cc(Cl)ccc4n3)cc1)OCCC2C(=O)O` (centres unmarked) [Example 8, 7-(4-(6-Chloroquinazolin-2-ylcarbamoyl)phenoxy)-6-cyanochroman-4-carboxylic acid], under setting [1], the EC50 is 695 nM.
On to `N#Cc1cc2c(cc1Oc1ccc(C(=O)Nc3cc4ccccc4cn3)cc1)OCCC2C(=O)O` (centres unmarked) [Example 9, 6-Cyano-7-(4-(isoquinolin-3-ylcarbamoyl)phenoxy)chroman-4-carboxylic acid], for which the EC50 under setting [1] came to 774 nM.
`N#Cc1cc2c(cc1Oc1ccc(C(=O)Nc3cnc4ccccc4c3)cc1)OCCC2C(=O)O` (centres unmarked) [Example 10, 6-Cyano-7-(4-(quinolin-3-ylcarbamoyl)phenoxy)chroman-4-carboxylic acid]: under setting [2], the half-maximal effective concentration (EC50) was found to be 37.8 nM.
As to `N#Cc1cc2c(cc1Oc1ccc(C(=O)NCCc3ccc(C(F)(F)F)cn3)cc1)OCCC2C(=O)O` (centres unmarked) [Example 11], the EC50 runs as follows: under setting [2], 47.6 nM; under setting [3], 183 nM.
For the molecule `N#Cc1cc2c(cc1Oc1ccc(C(=O)NCCc3ccc(C(F)(F)F)nc3)cc1)OCCC2C(=O)O` (centres unmarked) [Example 12, 6-Cyano-7-(4-(2-(6-(trifluoromethyl)pyridin-3-yl)ethylcarbamoyl)phenoxy)chroman-4-carboxylic acid], under setting [1], the EC50 came out at 667 nM.
On the same count and under the same terms, under `Cc1ccc(-c2cccc(NC(=O)c3ccc(Oc4cc5c(cc4C#N)C(C(=O)O)CCO5)cc3)n2)cc1C` (centres unmarked) [Example 13, 6-Cyano-7-(4-(6-(3,4-dimethylphenyl)pyridin-2-ylcarbamoyl)phenoxy)chroman-4-carboxylic acid] stands 45.1 nM.
Take `Cc1cc(C(=O)Nc2ccc(C(F)(F)F)nc2)ccc1Oc1cc2c(cc1C#N)C(C(=O)O)CCO2` (centres unmarked) [Example 14, 6-Cyano-7-(2-methyl-4-(6-(trifluoromethyl)pyridin-3-ylcarbamoyl)phenoxy)chroman-4-carboxylic acid]: the EC50 under setting [2] amounted to 55.8 nM.
With `O=C(Nc1cnc2cc(Cl)ccc2n1)c1ccc(Oc2cc3c(cc2Cl)C(C(=O)O)CCO3)cc1` (centres unmarked) [Example 15, 6-Chloro-7-(4-(6-chloroquinoxalin-2-ylcarbamoyl)phenoxy)chroman-4-carboxylic acid], the EC50 turned out to be 17.9 nM under setting [2], 207 nM under setting [3] and 409 nM under setting [1].
Take `O=C(Nc1ccc2cc(C(F)(F)F)ccc2n1)c1ccc(Oc2cc3c(cc2Cl)C(C(=O)O)CCO3)cc1` (centres unmarked) [Example 16, 6-Chloro-7-(4-(6-(trifluoromethyl)quinolin-2-ylcarbamoyl)phenoxy)chroman-4-carboxylic acid]: under setting [1], the EC50 was found to be 142 nM.
For `O=C(Nc1ccc2ccc(Cl)cc2n1)c1ccc(Oc2cc3c(cc2Cl)C(C(=O)O)CCO3)cc1` (centres unmarked) [Example 17, 6-Chloro-7-(4-(7-chloroquinolin-2-ylcarbamoyl)phenoxy)chroman-4-carboxylic acid], the 50% effective concentration (EC50) under setting [1] is 178 nM.
As for `O=C(Nc1ccc2cc(F)ccc2n1)c1ccc(Oc2cc3c(cc2Cl)C(C(=O)O)CCO3)cc1` (centres unmarked) [Example 18, 6-Chloro-7-(4-(6-fluoroquinolin-2-ylcarbamoyl)phenoxy)chroman-4-carboxylic acid], the EC50 under setting [1] turned out to be 185 nM.
Consider `O=C(Nc1ccc2c(Cl)cccc2n1)c1ccc(Oc2cc3c(cc2Cl)C(C(=O)O)CCO3)cc1` (centres unmarked) [Example 19, 6-Chloro-7-(4-(5-chloroquinolin-2-ylcarbamoyl)phenoxy)chroman-4-carboxylic acid], for which the EC50 under setting [1] came out at 210 nM.
As for `O=C(Nc1cnc2ccc(Cl)cc2n1)c1ccc(Oc2cc3c(cc2Cl)C(C(=O)O)CCO3)cc1` (centres unmarked) [Example 20, 6-Chloro-7-(4-(7-chloroquinoxalin-2-ylcarbamoyl)phenoxy)chroman-4-carboxylic acid], under setting [1], the EC50 came out at 255 nM.
As for `Cc1cc(NC(=O)c2ccc(Oc3cc4c(cc3Cl)C(C(=O)O)CCO4)cc2)nc2ccccc12` (centres unmarked) [Example 21, 6-Chloro-7-(4-(4-methylquinolin-2-ylcarbamoyl)phenoxy)chroman-4-carboxylic acid], under setting [1], the EC50 came out at 265 nM.
As to `COc1ccc2nc(NC(=O)c3ccc(Oc4cc5c(cc4Cl)C(C(=O)O)CCO5)cc3)ccc2c1` (centres unmarked) [Example 22, 6-Chloro-7-(4-(6-methoxyquinolin-2-ylcarbamoyl)phenoxy)chroman-4-carboxylic acid], under setting [1], the EC50 was found to be 466 nM.
